From patent publication US8562945B2, “Technetium- and rhenium-bis(heteroaryl) complexes and methods of use thereof” (Molecular Insight Pharmaceuticals, Inc., priority 2008, dated 2013)

Columns and labels:
[1] = Complex stability: 99mTc cysteine and histidine challenge experiments; format: physicochemical; settings: for time stable to excess histidine and cysteine challenges: 99mTc-SAAC complex, 37° C.
Experimental: 3. Tc-99m labeling. [^99mTc(CO)3(H2O)3]^+ was heated with [8-{N,N-di(pyridyl-2-methyl)}α-(fmoc)lysine] (DpK) in 0.5 mL (1 mg/mL) of methanol at 100° C. for 30 minutes. […] Labeling yields of >50% RCY, were achievable at levels as low as 2 μg/mL.
Complex stability: ^99mTc challenge experiments. The complexes were analyzed by HPLC for stability against cysteine and histidine challenge over time.

[2] = Determination of Log P values of 99mTc-SAAC complexes; format: physicochemical; settings: 99mTc complex; n-octanol / 25 mM pH=7.4 phosphate buffer
Experimental: Determination of Log P Values. The Log P values of the ^99mTc(I)-complexes were determined as follows. The ^99mTc-SAAC complexes were prepared and purified by RP-HPLC. The desired peak was collected and the sample was evaporated under a stream of nitrogen. The residue was dissolved in 25 μL of saline and placed in an equal volume of n-octanol (3 mL) and 25 mM pH=7.4 phosphate buffer (3 mL). The samples were mixed under vortex for 20 min, centrifuged at 8000 rpm for 5 min and three 100 μL aliquots were removed from both the aqueous and the organic layers for analysis on a gamma counter (Wallac 1282). Subsequently, 1 mL of the phosphate bufferTc-complex solution was removed and the process was repeated with fresh n-octanol, for a total number of six extractions to ensure full extraction of all the organic components. The partition coefficients were calculated using the equation: P=(activity concentration in n-octanol)/(activity concentration in aqueous layer). The Log P values reported were calculated from the average of the different measurements.

[3] = Rat tissue distribution of 99mTc complexes of example ligands (Table 6); format: in vivo, Sprague-Dawley Rats; settings: 99mTc complex
Experimental: Rat Tissue Distribution Studies. The distribution and pharmacokinetics of selected ^99mTc-SAAC complexes were evaluated in normal male Sprague Dawley rats (180-200 grams) administered via the tail vein as a bolus injection (approximately 10 μCi/rat) in a constant volume of 0.1 ml. The animals (n=5 per time point) were euthanized by asphyxiation with carbon dioxide at 5, 30, 60, and 120 min post injection. Tissues (blood, heart, lungs, liver, spleen, kidneys, adrenals, stomach, intestines (with contents), testes, skeletal muscle, bone and brain) were dissected, excised, weighed wet, and counted in an automated γ-counter (LKB Model 1282, Wallac Oy, Finland). Tissue time-radioactivity levels expressed as percent injected dose per gram of tissue (% ID/g) was determined.
^99mTc Complexes of various example ligands in Sprague-Dawley Rats.

CA-IX = CA-IX (Homo sapiens (Human), UniProt Q16790); experiment: Inhibition of carbonic anhydrase enzyme activity (4-nitrophenyl acetate hydrolysis), CA-IX; format: biochemical; settings: purified human enzyme, pH 7.4, 25° C.
Experimental: (§1) Selective Inhibition of Carbonic Anhydrase Enzyme Activity. Compounds were tested for their ability to inhibit carbonic anhydrase isozymes II and IX in vitro. Purified human enzymes were from R&D Systems (Minneapolis, Minn.). The inhibition constants (Ki) for CA-II and CA-IX were determined by the method of Pocker and Stone. Initial rates of 4-nitrophenyl acetate hydrolysis catalyzed by the different carbonic anhydrase isozymes were measured spectrophotometrically at 400 nm. Solutions of substrate (1×10^−2 to 1×10^−6 M) were prepared in anhydrous acetonitrile. A molar extinction coefficient of 18,000 M^−1·cm^−1 was used for the 4-nitrophenolate formed by hydrolysis under the conditions of the experiment (9 mM Tris-HCl, 81 mM NaCl, pH 7.4, 25° C.). The enzyme concentrations were 100 nM for CA-IX and 30 nM for CA-II. Non-enzymatic hydrolysis rates, determined in the absence of added enzyme, were subtracted from the observed rates. […] Dilutions of inhibitor were added to enzyme solutions and preincubated for 10 min to allow for the formation of the E-I complex prior to the addition of substrate. Acetazolamide was included in all assays as positive controls.

CA-II = CA-II (Homo sapiens (Human), UniProt P00918); experiment: Inhibition of carbonic anhydrase enzyme activity (4-nitrophenyl acetate hydrolysis), CA-II; format: biochemical; settings: purified human enzyme, pH 7.4, 25° C.
Experimental: as §1

In the case of `N[C@@H](CCCCN(Cc1nccs1)Cc1nccs1)C(=O)O` [DtK, (dithiazole)lysine], the “time stable to excess histidine and cysteine challenges” value [1] is reported as “more than 18 hours”, the “Log P” value [2] is reported as −2.40 and the Blood tissue distribution ([3]; 5 min) is reported as 3.32 ± 0.82 % ID/g. For the same compound, the Blood tissue distribution ([3]; 30 min) was 2.33 ± 0.26 % ID/g, the Blood tissue distribution ([3]; 60 min) was 1.4 ± 0.07 % ID/g and the Blood tissue distribution ([3]; 120 min) was 0.76 ± 0.12 % ID/g. The GI tissue distribution ([3]; 5 min) was 0.3 ± 0.15 % ID/g, the GI tissue distribution ([3]; 30 min) was 0.59 ± 0.13 % ID/g and the GI tissue distribution ([3]; 60 min) was 0.73 ± 0.29 % ID/g. For the same compound, the GI tissue distribution ([3]; 120 min) was 0.87 ± 0.2 % ID/g, the Kidney tissue distribution ([3]; 5 min) was 3.26 ± 1.04 % ID/g and the Kidney tissue distribution ([3]; 30 min) was 4.71 ± 0.41 % ID/g. For the same compound, the Kidney tissue distribution ([3]; 60 min) was 4.78 ± 0.14 % ID/g, the Kidney tissue distribution ([3]; 120 min) was 4.83 ± 0.41 % ID/g and the Liver tissue distribution ([3]; 5 min) was 1.7 ± 0.42 % ID/g. The Liver tissue distribution ([3]; 30 min) was 1.93 ± 0.15 % ID/g, the Liver tissue distribution ([3]; 60 min) was 2.05 ± .041 % ID/g and the Liver tissue distribution ([3]; 120 min) was 2.61 ± 0.31 % ID/g. For the same compound, the “Sk. Muscle tissue distribution” value ([3]; 5 min) was 0.16 ± 0.05 % ID/g, the “Sk. Muscle tissue distribution” value ([3]; 30 min) was 0.16 ± 0.01 % ID/g and the “Sk. Muscle tissue distribution” value ([3]; 60 min) was 0.15 ± 0.02 % ID/g. For the same compound, the “Sk. Muscle tissue distribution” value ([3]; 120 min) was 0.12 ± 0.01 % ID/g.

For `N[C@@H](CCCCN(Cc1ccccn1)Cc1ccccn1)C(=O)O` [DpK, [ε-{N,N-di(pyridyl-2-methyl)}α-lysine], reference compound], the “degradation by HPLC after cysteine or histidine challenge” value ([1]; 100 mM cysteine or histidine in PBS pH 7.2, 37° C., 18 h) was “no degradation”, the “time stable to excess histidine and cysteine challenges” value [1] was “more than 18 hours” and the “Log P” value [2] was −1.89. The Blood tissue distribution ([3]; 5 min) was 0.58 ± 0.05 % ID/g, the Blood tissue distribution ([3]; 30 min) was 0.07 ± 0.01 % ID/g and the Blood tissue distribution ([3]; 60 min) was 0.03 ± 0.01 % ID/g. It also gave a Blood tissue distribution ([3]; 120 min) of 0.01 ± 0.00 % ID/g, a GI tissue distribution ([3]; 5 min) of 0.49 ± 0.08 % ID/g and a GI tissue distribution ([3]; 30 min) of 0.89 ± 0.07 % ID/g. The GI tissue distribution ([3]; 60 min) was 1.46 ± 0.09 % ID/g, the GI tissue distribution ([3]; 120 min) was 2.73 ± 0.57 % ID/g and the Kidney tissue distribution ([3]; 5 min) was 6.05 ± 1.03 % ID/g. For the same compound, the Kidney tissue distribution ([3]; 30 min) was 4.94 ± 0.11 % ID/g, the Kidney tissue distribution ([3]; 60 min) was 4.93 ± 0.43 % ID/g and the Kidney tissue distribution ([3]; 120 min) was 3.89 ± .042 % ID/g. For the same compound, the Liver tissue distribution ([3]; 5 min) was 3.36 ± 0.44 % ID/g, the Liver tissue distribution ([3]; 30 min) was 2.75 ± .011 % ID/g and the Liver tissue distribution ([3]; 60 min) was 2.59 ± 0.08 % ID/g. The Liver tissue distribution ([3]; 120 min) was 2.20 ± 0.06 % ID/g, the “Sk. Muscle tissue distribution” value ([3]; 5 min) was 0.18 ± 0.02 % ID/g and the “Sk. Muscle tissue distribution” value ([3]; 30 min) was 0.03 ± 0.00 % ID/g. For the same compound, the “Sk. Muscle tissue distribution” value ([3]; 60 min) was 0.03 ± 0.01 % ID/g and the “Sk. Muscle tissue distribution” value ([3]; 120 min) was 0.01 ± 0.00 % ID/g.

Compound “[Re(CO)3][2-((pyridin-2-ylmethyl)(4-sulfamoylphenethyl)amino)acetic acid] [Compound 23-Re]” has an IC50 (CA-IX) of 564 nM and an IC50 (CA-II) of 652 nM.
